These results are taken from ChEMBL document CHEMBL1131313, “1-[omega-(4-arylpiperazin-1-yl)alkyl]-3-diphenylmethylene-2,5- pyrrolidinediones as 5-HT1A receptor ligands: study of the steric requirements of the terminal amide fragment on 5-HT1A affinity/selectivity” (Bioorg Med Chem Lett, 1998).

Where only a bound is given, the exact number is not on record here.

The target in one assay is D(2) dopamine receptor (Rattus norvegicus, UniProt P61169). In words: In vitro binding affinity against Dopamine receptor D2 in rat striatum membrane using [3H]raclopride as radioligand. It is filed as cell membranes.
Sequence of D(2) dopamine receptor (P61169 whole entry): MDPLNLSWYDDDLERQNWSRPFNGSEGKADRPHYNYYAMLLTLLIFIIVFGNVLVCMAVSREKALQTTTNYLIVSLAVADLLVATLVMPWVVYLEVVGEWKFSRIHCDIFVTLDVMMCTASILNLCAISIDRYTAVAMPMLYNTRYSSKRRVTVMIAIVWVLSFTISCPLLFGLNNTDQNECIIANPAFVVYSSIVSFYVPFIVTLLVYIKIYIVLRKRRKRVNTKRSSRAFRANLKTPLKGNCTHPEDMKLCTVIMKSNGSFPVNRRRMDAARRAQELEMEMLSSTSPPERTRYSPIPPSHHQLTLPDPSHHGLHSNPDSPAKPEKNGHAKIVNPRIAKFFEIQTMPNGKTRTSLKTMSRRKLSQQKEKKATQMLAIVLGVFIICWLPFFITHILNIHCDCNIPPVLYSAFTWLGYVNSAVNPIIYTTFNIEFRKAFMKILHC
Assay [1] addresses T1, 5-hydroxytryptamine receptor 1A (Rattus norvegicus, UniProt P19327).
T1 sequence (P19327 whole entry): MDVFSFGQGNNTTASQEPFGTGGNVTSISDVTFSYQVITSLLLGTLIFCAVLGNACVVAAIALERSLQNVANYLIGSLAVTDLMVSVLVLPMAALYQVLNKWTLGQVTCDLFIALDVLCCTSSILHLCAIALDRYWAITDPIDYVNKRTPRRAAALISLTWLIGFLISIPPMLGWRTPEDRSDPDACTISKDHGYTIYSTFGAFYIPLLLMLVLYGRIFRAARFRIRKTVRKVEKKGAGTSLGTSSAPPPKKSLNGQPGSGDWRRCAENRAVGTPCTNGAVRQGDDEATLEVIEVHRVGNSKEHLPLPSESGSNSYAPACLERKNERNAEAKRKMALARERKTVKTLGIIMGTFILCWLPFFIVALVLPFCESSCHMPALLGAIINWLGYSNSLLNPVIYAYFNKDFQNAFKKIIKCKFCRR
As to the kind of experiment: In vitro binding affinity against serotonin 5-HT1A receptor in rat cerebral cortex membrane using [3H]8-OH-DPAT as radioligand. It is filed as cell membranes.

The target in assay [2] is T2, Adrenergic receptor alpha-1 (Rattus norvegicus, UniProt P15823+P23944+P43140).
T2 sequence (P15823 whole entry): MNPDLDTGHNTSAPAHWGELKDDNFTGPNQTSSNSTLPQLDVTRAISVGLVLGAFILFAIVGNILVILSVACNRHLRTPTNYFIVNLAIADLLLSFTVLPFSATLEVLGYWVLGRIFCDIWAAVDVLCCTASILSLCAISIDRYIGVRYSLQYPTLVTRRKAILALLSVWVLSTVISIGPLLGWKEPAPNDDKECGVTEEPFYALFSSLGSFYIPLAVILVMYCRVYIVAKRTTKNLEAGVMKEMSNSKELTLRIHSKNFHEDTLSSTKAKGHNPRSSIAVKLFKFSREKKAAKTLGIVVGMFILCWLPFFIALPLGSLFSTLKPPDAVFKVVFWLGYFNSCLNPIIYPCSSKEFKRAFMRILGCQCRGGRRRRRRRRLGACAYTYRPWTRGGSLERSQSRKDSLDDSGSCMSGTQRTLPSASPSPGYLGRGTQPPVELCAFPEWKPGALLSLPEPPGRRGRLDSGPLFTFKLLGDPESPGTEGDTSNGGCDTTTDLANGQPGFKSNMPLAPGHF
T2 sequence (P23944 whole entry): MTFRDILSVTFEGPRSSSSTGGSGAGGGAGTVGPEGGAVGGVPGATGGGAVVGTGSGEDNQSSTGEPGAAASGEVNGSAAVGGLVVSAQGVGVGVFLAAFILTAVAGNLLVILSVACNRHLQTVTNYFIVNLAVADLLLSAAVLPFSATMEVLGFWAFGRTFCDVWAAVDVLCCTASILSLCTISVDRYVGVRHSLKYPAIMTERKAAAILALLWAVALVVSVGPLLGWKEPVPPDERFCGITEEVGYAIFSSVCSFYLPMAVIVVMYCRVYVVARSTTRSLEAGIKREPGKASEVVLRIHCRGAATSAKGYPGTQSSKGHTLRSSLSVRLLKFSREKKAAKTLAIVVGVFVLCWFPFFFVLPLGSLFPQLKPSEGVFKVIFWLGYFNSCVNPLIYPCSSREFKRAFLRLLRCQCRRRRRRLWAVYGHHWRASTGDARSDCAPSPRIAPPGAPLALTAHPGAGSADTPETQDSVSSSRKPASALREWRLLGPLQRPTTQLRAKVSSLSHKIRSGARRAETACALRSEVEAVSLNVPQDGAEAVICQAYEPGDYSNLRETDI
T2 sequence (P43140 whole entry): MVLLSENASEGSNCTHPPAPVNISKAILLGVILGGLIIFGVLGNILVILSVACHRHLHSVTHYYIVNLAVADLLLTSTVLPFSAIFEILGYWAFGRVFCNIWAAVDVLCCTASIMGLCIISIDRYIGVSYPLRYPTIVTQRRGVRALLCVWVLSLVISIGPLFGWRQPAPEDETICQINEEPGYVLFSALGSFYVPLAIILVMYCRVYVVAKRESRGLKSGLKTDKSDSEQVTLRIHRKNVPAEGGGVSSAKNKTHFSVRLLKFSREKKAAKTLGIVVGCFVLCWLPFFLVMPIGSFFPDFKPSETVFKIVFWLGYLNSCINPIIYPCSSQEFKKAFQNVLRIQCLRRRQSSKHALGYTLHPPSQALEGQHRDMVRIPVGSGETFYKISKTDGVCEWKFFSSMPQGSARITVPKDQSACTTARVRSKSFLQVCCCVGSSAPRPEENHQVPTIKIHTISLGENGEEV
As to the kind of experiment: In vitro binding affinity against Alpha-1 adrenergic receptor in rat cerebral cortex membrane using [3H]prazosin as radioligand. It is filed as cell membranes.

In assay [3] the target is T2, Adrenergic receptor alpha-1. As to the kind of experiment: Antagonistic activity (pA2) at Alpha-1 adrenergic receptor in ring segments of rat thoracic aorta contracted by phenylephrine. It counts as functional, tissue-based.
For another assay, the species on record is Rattus norvegicus. As to the kind of experiment: Compound was evaluated for its ability to affect adenylyl cyclase activity in rat hippocampus slice preparation; agonist. Particulars: filed as agonist. It is filed as functional.

By Ki is commonly meant a measure of affinity in units of concentration, obtained from inhibition or displacement. On to `O=C1CC(=C(c2ccccc2)c2ccccc2)C(=O)N1CCN1CCN(c2ccc(F)cc2)CC1`, for which the values for the Ki (at D(2) dopamine receptor; in assay [1]; in assay [2]) were > 1000 nM, > 1000 nM and 529 nM, respectively.

With `O=C1CC(=C(c2ccccc2)c2ccccc2)C(=O)N1CCCCN1CCN(c2cccc(C(F)(F)F)c2)CC1`, the inhibition constant (Ki) was 689 nM on D(2) dopamine receptor, 15.8 nM in assay [1] and 60.5 nM in assay [2].

What is called pA2 is a measure of antagonist potency on a negative log scale. As to `O=C1CC(=C(c2ccccc2)c2ccccc2)C(=O)N1CCCN1CCN(c2ccccc2)CC1`, the figures for the inhibition constant (Ki) (at D(2) dopamine receptor; in assay [1]; in assay [2]) were > 1000 nM, > 1000 nM and 5.7 nM, respectively. In addition, in assay [3], the pA2 is 7.79.

For the compound `COc1ccccc1N1CCN(CN2C(=O)CC(=C(c3ccccc3)c3ccccc3)C2=O)CC1`, the figures for the inhibition constant Ki (at D(2) dopamine receptor; in assay [1]; in assay [2]) were > 1000 nM, 93.8 nM and > 1000 nM, respectively.

As to `O=C1CC(=C(c2ccccc2)c2ccccc2)C(=O)N1CN1CCN(c2ccc(F)cc2)CC1`, the values for the inhibitory constant (Ki) (at D(2) dopamine receptor; in assay [1]; in assay [2]) were > 1000 nM, > 1000 nM and 746 nM, respectively.

Turning to `COc1ccccc1N1CCN(CCN2C(=O)CC(=C(c3ccccc3)c3ccccc3)C2=O)CC1`, the Ki at D(2) dopamine receptor came out at 167 nM; in assay [1], 286 nM; in assay [2], 71.5 nM.

With `COc1ccccc1N1CCN(CCCN2C(=O)CC(=C(c3ccccc3)c3ccccc3)C2=O)CC1`, the Ki came to 156 nM on D(2) dopamine receptor, 665 nM in assay [1] and 8.1 nM in assay [2].

For the compound `O=C1CC(=C(c2ccccc2)c2ccccc2)C(=O)N1CCN1CCN(c2cccc(C(F)(F)F)c2)CC1`, the Ki (at D(2) dopamine receptor; in assay [1]; in assay [2]) was > 1000 nM throughout.

Consider `O=C1CC(=C(c2ccccc2)c2ccccc2)C(=O)N1CCCCN1CCN(c2ccc(F)cc2)CC1`, for which the Ki on D(2) dopamine receptor was 351 nM; in assay [1] it was 3.3 nM; in assay [2] it was 51.8 nM. In addition, in the assay filed under Rattus norvegicus, the Activity entry is “Agonist”.

For `O=C1CC(=C(c2ccccc2)c2ccccc2)C(=O)N1CCCCN1CCN(c2cccc(Cl)c2)CC1`, the inhibition constant (Ki) at D(2) dopamine receptor stood at 367 nM; in assay [1], 39.3 nM; in assay [2], 16.4 nM.

For `O=C1CC(=C(c2ccccc2)c2ccccc2)C(=O)N1CN1CCN(c2cccc(C(F)(F)F)c2)CC1`, the figures for the inhibition constant Ki (at D(2) dopamine receptor; in assay [1]; in assay [2]) were > 1000 nM, 59.6 nM and > 1000 nM, respectively. In the assay listed under Rattus norvegicus, the Activity result was “Agonist”.

For `O=C1CC(=C(c2ccccc2)c2ccccc2)C(=O)N1CN1CCN(c2cccc(Cl)c2)CC1`, the Ki is > 1000 nM at D(2) dopamine receptor, 49.4 nM in assay [1] and 392 nM in assay [2].

For the compound `O=C1CC(=C(c2ccccc2)c2ccccc2)C(=O)N1CCCN1CCN(c2cccc(Cl)c2)CC1`, the Ki on D(2) dopamine receptor was determined as 801 nM; in assay [1] it was 127 nM; in assay [2] it was 39.2 nM.

For the compound `O=C1CC(=C(c2ccccc2)c2ccccc2)C(=O)N1CCN1CCN(c2ccccc2)CC1`, the inhibition constant Ki at D(2) dopamine receptor is > 1000 nM; in assay [1], > 1000 nM; in assay [2], 214 nM.

As to `O=C1CC(=C(c2ccccc2)c2ccccc2)C(=O)N1CCCN1CCN(c2ccc(F)cc2)CC1`, the Ki at D(2) dopamine receptor is > 1000 nM; in assay [1], > 1000 nM; in assay [2], 8.3 nM. The compound also came in with a pA2 in assay [3] of 8.63.

On to `O=C1CC(=C(c2ccccc2)c2ccccc2)C(=O)N1CN1CCN(c2ccccc2)CC1`, for which the values for the inhibition constant Ki (at D(2) dopamine receptor; in assay [1]; in assay [2]) were > 1000 nM, 98 nM and > 1000 nM, respectively.

As for `O=C1CC(=C(c2ccccc2)c2ccccc2)C(=O)N1CCCN1CCN(c2cccc(C(F)(F)F)c2)CC1`, the figures for the Ki (at D(2) dopamine receptor; in assay [1]; in assay [2]) were > 1000 nM, > 1000 nM and 62.7 nM, respectively.

Consider `COc1ccccc1N1CCN(CCCCN2C(=O)CC(=C(c3ccccc3)c3ccccc3)C2=O)CC1`, for which the Ki on D(2) dopamine receptor is > 1000 nM; in assay [1], 13.4 nM; in assay [2], 14.4 nM.

Regarding `O=C1CC(=C(c2ccccc2)c2ccccc2)C(=O)N1CCN1CCN(c2cccc(Cl)c2)CC1`, the inhibition constant (Ki) (on D(2) dopamine receptor; in assay [1]; in assay [2]) was > 1000 nM throughout.

As for `O=C1CC(=C(c2ccccc2)c2ccccc2)C(=O)N1CCCCN1CCN(c2ccccc2)CC1`, the figures for the Ki (at D(2) dopamine receptor; in assay [1]; in assay [2]) were > 1000 nM, 125 nM and 6.4 nM, respectively.
